Laboratory results taken from patent US7527935B2, “G-protein coupled receptor having eicosanoid as ligand and gene thereof” (Mitsubishi Tanabe Pharma Corporation, priority 2002, dated 2009).

Legend:
[1] = tested on: TG1019 (5-oxo-ETE receptor); experiment: Migration test using CHO cells stably expressing TG1019; assay type: cell-based, human; conditions: 5 hours
Protocol: The cells stably expressing TG1019 and the cells not expressing the same obtained in the above section (1) were cultured in a medium (DMEM/F12 medium supplemented with 10% fetal bovine serum [GibcoBRL]), containing 800 μg/ml of hygromycin B. The cells which were 80 to 90% confluent were dissociated by a cell dissociation buffer, and the cells were washed twice by centrifugation (600×g, 5 minutes, 4° C.) with 10 ml of RPMI1640 culture medium supplemented with 0.1% BSA Then, the cells were prepared to a concentration of 1×10^6 cells/ml in the same medium.
Cell migration test was carried out using 2 chambers for migration test (Transwell; 8 μm pore, 24 well, 3422 [Costar]). Chambers were set in a plate, and a solution (600 μl) containing 5-oxo-ETE was added to the lower chamber, and the cell solution (100 μl) was added to the upper chamber, to start the reaction. Migration was carried out at 37° C. for 5 hours in a CO2 incubator.
The chambers were removed, and […] of the solution in the lower chamber was transferred to a tube, and centrifuged at 600×g, 3 minutes, 4° C. 300 μl of the supernatant was removed, and RPMI1640 culture medium supplemented with 0.1% BSA (not containing phenol red) was added, if needed, to adjust a volume of the cell solution to 300 μl. The number of the cells migrated to the lower chamber were counted by flow cytometer.

[2] = tested on: neutrophils; experiment: Migration test of neutrophils; assay type: cell-based; conditions: purified human neutrophils; 2 hours
Protocol: Neutrophils were purified as follows. Blood was collected (50 ml) from healthy male adult volunteers. Then, 12.5 ml each of the collected blood was poured into a 50 ml tube containing 23 ml physiological saline, and, the total volume was adjusted to 40 ml with physiological saline. To a bottom of the tube, Percoll solution (specific gravity: 1.079±0.004, 10 ml) was gently added, and the mixture was centrifuged at 430×g, for 20 minutes at room temperature, without deceleration or acceleration.
After washing the eosinophils and neutrophils purified in the above sections, the cells were suspended in RPMI1640 supplemented with 0.1% BSA (not containing phenol red) which contains 3 μM Calcein-AM (Dojindo laboratories, fluorescence reagent), so that the cell count became 1×10^6 cells/ml. The suspension was incubated at 37° C. for 30 minutes. The cells were washed twice with the same culture medium, and suspended in the same medium so that the cell count became 1×10^6 cells/ml. […]
After the reaction, the chambers were removed, and to the lower chamber was added 66 μl of 10× lysis buffer (5% Triton X-100 dissolved in PBS, 10% ethanol). […] 200 μl of the cell lysate was transferred to 96 well black plate (237105, Nunc), and fluorescence intensities were measured using a fluorometer (ARVO™ SX, Wallac) with an excitation wavelength of 485 nm and a fluorescence wavelength of 535 nm.

[3] = molecular target: T1, fusion protein of TG1019 protein and Giα1 (351Cys→Ile) (Homo sapiens, UniProt P63096+Q8TDS5, C351I/D111G/K206E/T295A); experiment: [35S]GTPγS binding to membrane fraction containing TG1019-Giα1 (351Cys→Ile) fusion protein (ligand identification); assay type: biochemical; conditions: membrane fraction with TG1019-Giα1 (351Cys→Ile) fusion protein
T1 construct: made in house; host or cells: Sf9 insect cells (baculovirus, pVL1392), membrane fraction
From the text: As stated in Example 1, it is concluded that TG1019 protein is a G-protein coupled receptor. Therefore, using a membrane fraction containing fused protein of TG1019 and G-protein, a ligand is identified as follows, according to a method for detecting a ligand-dependent binding with GTPγS (guanosine 5′-O-(3-thiotriphosphate)) [Wenzel-Seifert, et al., Mol. Pharmacom., Vol. 58, pp. 954-966, 2000; Bahia, et al., Biochemistry, Vol. 37, pp. 11555-11562, 1998].
Sf9 cells were inoculated onto a 10 cm Petri dish coated with collagen to about 70% confluence, and added thereto were Virus solution III (100 μl) obtained above and 12 ml of a culture medium, and the mixture was cultured at 27° C. for 4 days. The obtained cells were washed with a cooled PBS (Phosphate buffered saline, pH 7.4), and suspended in 3.6 ml of a cooled solution buffer [20 mM Tris-HCl, pH 7.5, 1 mM EDTA, 0.2 mM phenylmethylsulfonyl fluoride, 10 μg/ml pepstatin, 10 μg/ml leupeptin, and 2 μg/ml aprotinin], and the cells were homogenized by means of a Teflon homogenizer. This cell homogenate was centrifuged (600×g, 10 minutes), and the resultant supernatant was further centrifuged (50,000×g, 20 minutes). The obtained sediments were suspended in 450 μl of a cooled reaction buffer [20 mM Tris-HCl, pH 7.5, 50 mM sodium chloride, 10 mM magnesium chloride] by means of a Teflon homogenizer, to prepare a membrane fraction containing a fusion protein.
The membrane fraction (450 μl) obtained above (2) was suspended in a reaction buffer (7.54 ml), and added thereto was GDP (10 mM, 10 μl). To 160 μl of this solution was added 20 μl of a test compound. After incubating the mixture at 30° C. for 10 minutes, 20 μl of [^35S] GTPγS (5 nM, 5 nCi/μl: available from Amersham Pharmacia Biotech) was added to start reaction. After incubating the mixture at 30° C. for one hour, the reaction was terminated by filtration through a glass filter (UniFilter-96GF/B, available from Packard). The filter was washed with 200 μl of a cooled reaction buffer for 3 times, and an amount of the [^35S] GTPγS (a binding amount to the membrane fraction) on the filter was measured by liquid scintillation counting. From the thus measured [^35S] GTPγS binding amount was subtracted a nonspecific binding amount (a binding amount measured in the presence of 10 μM GTPγS), to obtain a specific binding amount of [^35S ] GTPγS.

T1 sequence (Q8TDS5+P63096 fused Q8TDS5:D111G/Q8TDS5:K206E/Q8TDS5:T295A/P63096:C351I): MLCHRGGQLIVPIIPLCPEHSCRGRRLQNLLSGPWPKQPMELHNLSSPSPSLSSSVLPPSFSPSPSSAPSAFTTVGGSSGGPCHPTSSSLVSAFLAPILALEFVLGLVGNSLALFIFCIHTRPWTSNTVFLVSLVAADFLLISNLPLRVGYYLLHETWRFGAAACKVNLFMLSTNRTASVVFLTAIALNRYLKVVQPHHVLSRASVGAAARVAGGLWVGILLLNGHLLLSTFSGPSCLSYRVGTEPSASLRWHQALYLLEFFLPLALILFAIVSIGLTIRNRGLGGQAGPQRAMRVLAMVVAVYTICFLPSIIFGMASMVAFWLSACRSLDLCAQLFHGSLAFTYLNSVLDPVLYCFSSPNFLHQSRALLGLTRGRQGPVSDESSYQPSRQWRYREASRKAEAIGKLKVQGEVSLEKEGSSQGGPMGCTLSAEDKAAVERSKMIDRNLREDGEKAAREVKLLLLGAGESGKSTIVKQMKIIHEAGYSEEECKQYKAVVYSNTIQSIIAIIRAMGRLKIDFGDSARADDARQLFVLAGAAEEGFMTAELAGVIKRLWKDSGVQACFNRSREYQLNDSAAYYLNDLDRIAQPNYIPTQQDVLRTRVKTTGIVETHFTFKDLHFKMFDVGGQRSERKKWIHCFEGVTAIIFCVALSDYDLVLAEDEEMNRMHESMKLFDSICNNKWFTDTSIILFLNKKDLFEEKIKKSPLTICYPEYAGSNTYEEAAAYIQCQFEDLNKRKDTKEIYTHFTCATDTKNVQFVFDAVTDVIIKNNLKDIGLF

In the case of `CCCCC/C=C\C/C=C\C/C=C\C=C\C(=O)CCCC(=O)O` [5-oxo-ETE, 5-oxo-6E,8Z,11Z,14Z-eicosatetraenoic acid], the cell migration ([1]; cells not expressing TG1019) is reported as “did not”, the cell migration ([1]; cells stably expressing TG1019) is reported as “showed 5-oxo-ETE-induced migration” and the migration of neutrophils [2] is reported as “has an ability to make these cells migrate”. For the same compound, the “specific binding amount of [35S]GTPγS” value [3] was “increased in a concentration-dependent manner”.
